Measurements as given in US20060111305A1, “Metabolites of certain [1,4]diazepino[6,7,1-ij]quinoline derivatives and methods of preparation and use thereof” (Wyeth, priority 2004, published 2006).
“And” between values parts separate entries of the source, which are not always exact repeats. Identical values can stand only once.

Tests used:
[1] = Dog fecal excretion and metabolite profiles after oral capsule of [14C]DCDQ; format: in vivo, beagle dogs
Method: Blood samples were collected from the jugular vein at 2, 4, 8, 24 and 48 hour after dose administration into tubes containing potassium EDTA as the anticoagulant and then placed on ice. Aliquots of 50 μL were removed for combustion and determination of radioactivity content. Plasma was immediately obtained from the remaining blood by centrifugation at 4° C. Urine samples were collected into tubes on dry ice at intervals of 0-8, 8-24 and 24-48 hour post-dose. Fecal samples were collected at intervals of 0-8, 8-24 and 24-48 hour post-dose at room temperature, and were homogenized. The biological specimens were stored at approximately −70° C. until analysis.
Feces were weighed and homogenized in water at a volume-to-weight ratio of about 5:1. Aliquots of blood (200 μL) and fecal homogenates (0.25-0.53 gram) were placed on Combusto-cones with Combusto-pads and combusted. A model 307 Tri-Carb sample oxidizer, equipped with an Oximate-80 robotic automatic sampler (Perkin Elmer), was used for combustion of blood and fecal samples. The liberated ^14CO2 was trapped with Carbo-Sorb E carbon dioxide absorber, mixed with PermaFluor® E+ liquid scintillation cocktail, and counted on a Tri-Carb Model 3100 TR/LL liquid scintillation counter (Perkin Elmer). The efficiency of combustion was 98.9%.
Fecal homogenates were analyzed for metabolite profiles. Aliquots of 1 gram of fecal homogenate were mixed with 2 mL methanol, placed on ice for about 10 minutes and centrifuged. The supernatant was transferred to a clean tube. The residue was extracted three times with 2 mL of a water:methanol (3:7) mixture. The supernatants from each sample were combined, evaporated to about 1 mL, and centrifuged. Extraction efficiency was determined by analyzing aliquots of 10 μL of the supernatant for radioactivity. An aliquot (50-200 μL) of the supernatant was analyzed by HPLC with radioactivity flow detection for metabolite profiles. Samples were also analyzed by LC/MS to characterize the radioactive peaks.
A Waters model 2690 HPLC system (Waters Corp., Milford, Mass.) with a built-in autosampler was used for analysis. Separations were accomplished on a Phenomenex Luna C18(2) column (150×2.0 mm, 5 μm) (Phenomenex, Torrance, Calif.). The sample chamber of the autosampler was maintained at 4° C., while the column was at ambient temperature of about 20° C. A variable wavelength UV detector set to monitor 250 nm and a Flo-One β Model A525 radioactivity detector were used for data acquisition. The HPLC mobile phase consisted of 10 mM ammonium acetate, pH 4.5 (A) and acetonitrile (B), and was delivered at 0.2 mL/min. Chromatographic condition A was used for dose analysis, while condition B was used for analysis of urine and plasma, brain and fecal extracts.

[2] = M6 to DCDQ ratios in human urine, LC/MS (Table 35); format: in vivo, healthy human subjects
Method: Drug administration and specimen collection were performed in a randomized, double-blinded, placebo-controlled, ascending single dose study of the safety, tolerability, pharmacokinetics, and pharmacodynamics of DCDQ administered orally to healthy subjects and subjects with schizophrenia and schizoaffective disorder. The specimens were stored at approximately −70° C. until analysis for metabolite profiles and for ratios of carbamoyl glucuronide (M6) to DCDQ.
The 0-4, 4-12 and 12-24 hr urine samples from the same subjects in the single dose groups were analyzed for ratios of M6 to DCDQ. The internal standard was not used in the analysis of urine samples. The samples were diluted for 20-fold with a control urine sample and directly analyzed by LC/MS. To estimate M6-to-DCDQ ratios in human urine, control urine samples were spiked with 200 ng/mL of DCDQ and 1000, 5000, or 10000 ng/mL of DCDQ carbamoyl glucuronide, and were analyzed by LC/MS.
LC/MS System 3 was used for semi-quantitative analysis of metabolite M6 (DCDQ carbamoyl glucuronide) in plasma and urine samples. The HPLC equipment for this LC/MS System consisted of a Thermo Surveyor HPLC (Thermo Electron Corp., San Jose, Calif.), including a Surveyor MS pump and autosampler. Separations were accomplished on a 5 micron Phenomenex Luna C18(2) column, 150×2 mm (Phenomenex, Torrance, Calif.). The autosampler and column temperatures were set at 5° C. and 40° C., respectively. The HPLC mobile phase consisted of 10 mM ammonium acetate (A) and methanol (B), and was delivered at 0.2 mL/min. The linear mobile phase gradient (HPLC Gradient 2) is shown below. During LC/MS sample analysis, up to 3 min of the initial flow was diverted away from the mass spectrometer prior to evaluation of metabolites.
The mass spectrometer used for semi-quantitative anslysis with LC/MS System 3 was a Finnigan TSQ Quantum triple quadrupole mass spectrometer (Thermo Electron Corp.). The mass spectrometer was equipped with an electrospray interface and operated in the positive ionization mode. Settings for this mass spectrometer are listed below.
LC/MS/MS analysis in the selected reaction monitoring (SRM) mode (LC/SRM) was conducted for DCDQ and M6 using the following settings.

[3] = 50 mg (fasted), 0-4 hr, Mean ± S.D.
[4] = 50 mg (fasted), 0-4 hr, individual subjects
[5] = 50 mg (fasted), 4-12 hr, Mean ± S.D.
[6] = 50 mg (fasted), 4-12 hr, individual subjects
[7] = 50 mg (fasted), 12-24 hr, individual subjects
[8] = 200 mg (fasted), 0-4 hr, Mean ± S.D.
[9] = 200 mg (fasted), 0-4 hr, individual subjects
[10] = 200 mg (fasted), 4-12 hr, Mean ± S.D.
[11] = 200 mg (fasted), 4-12 hr, individual subjects
[12] = 200 mg (fasted), 12-24 hr, Mean ± S.D.
[13] = 200 mg (fasted), 12-24 hr, individual subjects
[14] = 300 mg (fasted), 0-4 hr, Mean ± S.D.
[15] = 300 mg (fasted), 0-4 hr, individual subjects
[16] = 300 mg (fasted), 4-12 hr, Mean ± S.D.
[17] = 300 mg (fasted), 4-12 hr, individual subjects
[18] = 300 mg (fasted), 12-24 hr, Mean ± S.D.
[19] = 300 mg (fasted), 12-24 hr, individual subjects
[20] = 300 mg (fed), 0-4 hr, Mean ± S.D.
[21] = 300 mg (fed), 0-4 hr, individual subjects
[22] = 300 mg (fed), 4-12 hr, Mean ± S.D.
[23] = 300 mg (fed), 4-12 hr, individual subjects
[24] = 300 mg (fed), 12-24 hr, Mean ± S.D.
[25] = 300 mg (fed), 12-24 hr, individual subjects
[26] = 500 mg (fasted), 0-4 hr, Mean ± S.D.
[27] = 500 mg (fasted), 0-4 hr, individual subjects
[28] = 500 mg (fasted), 4-12 hr, Mean ± S.D.
[29] = 500 mg (fasted), 4-12 hr, individual subjects
[30] = 500 mg (fasted), 12-24 hr, Mean ± S.D.
[31] = 500 mg (fasted), 12-24 hr, individual subjects

O=C(O)[C@H]1O[C@@H](OC(=O)N2CCN3C[C@@H]4CCC[C@@H]4c4cccc(c43)C2)[C@H](O)[C@@H](O)[C@@H]1O [Metabolite M6, carbamoyl glucuronide of DCDQ]
metabolite detected in feces [1]: not detected
M6 to DCDQ Ratios [2, 3]: 841 ± 798
M6 to DCDQ Ratios [2, 4]: 214 and 571 and 1739
M6 to DCDQ Ratios [2, 5]: 419 ± 174
M6 to DCDQ Ratios [2, 6]: 389 and 606 and 261
M6 to DCDQ Ratios ([2]; 50 mg (fasted), 12-24 hr, Mean): 155 ± 98.1
M6 to DCDQ Ratios [2, 7]: 143 and 259 and 63.9
M6 to DCDQ Ratios [2, 8]: 151 ± 32.9
M6 to DCDQ Ratios [2, 9]: 169 and 171 and 113
M6 to DCDQ Ratios [2, 10]: 284 ± 98.7
M6 to DCDQ Ratios [2, 11]: 397 and 240 and 215
M6 to DCDQ Ratios [2, 12]: 115 ± 90.4
M6 to DCDQ Ratios [2, 13]: 216 and 85.9 and 42.3
M6 to DCDQ Ratios [2, 14]: 820 ± 365
M6 to DCDQ Ratios [2, 15]: 1167 and 852 and 440
M6 to DCDQ Ratios [2, 16]: 732 ± 702
M6 to DCDQ Ratios [2, 17]: 329 and 1543 and 324
M6 to DCDQ Ratios [2, 18]: 241 ± 212
M6 to DCDQ Ratios [2, 19]: 485 and 127 and 110
M6 to DCDQ Ratios [2, 20]: 1018 ± 520
M6 to DCDQ Ratios [2, 21]: 1162 and 441 and 1451
M6 to DCDQ Ratios [2, 22]: 761 ± 508
M6 to DCDQ Ratios [2, 23]: 375 and 571 and 1337
M6 to DCDQ Ratios [2, 24]: 142 ± 46.0
M6 to DCDQ Ratios [2, 25]: 148 and 92.6 and 184
M6 to DCDQ Ratios [2, 26]: 97.6 ± 55.2
M6 to DCDQ Ratios [2, 27]: 71.5 and 60.2 and 161
M6 to DCDQ Ratios [2, 28]: 84.3 ± 58.6
M6 to DCDQ Ratios [2, 29]: 149 and 34.6 and 69.4
M6 to DCDQ Ratios [2, 30]: 176 ± 128
M6 to DCDQ Ratios [2, 31]: 288 and 36.0 and 203

OC1[C@@H]2CCC[C@@H]2c2cccc3c2N1CCNC3 (some centres unmarked) [Metabolite M2, hydroxy DCDQ]
metabolite detected in feces [1]: detected

c1cc2c3c(c1)[C@H]1CCC[C@H]1CN3CCNC2 [DCDQ, (9aR,12aS)-4,5,6,7,9,9a,10,11,12,12a-decahydro-cyclopenta[c][1,4]diazepine[6,7,1-ij]quinoline, reference compound]
DCDQ concentration in urine [2, 3]: 47.5 ± 58.5 ng/mL
DCDQ concentration in urine [2, 4]: 115 ng/mL and 13.7 ng/mL (2×)
DCDQ concentration in urine [2, 5]: 58.4 ± 58.9 ng/mL
DCDQ concentration in urine [2, 6]: 31 ng/mL and 18.2 ng/mL and 126 ng/mL
DCDQ concentration in urine ([2]; 50 mg (fasted), 12-24 hr, Mean): 32.7 ± 37.4 ng/mL
DCDQ concentration in urine [2, 7]: 17.7 ng/mL and 5.21 ng/mL and 75.3 ng/mL
DCDQ concentration in urine [2, 8]: 199 ± 124 ng/mL
DCDQ concentration in urine [2, 9]: 251 ng/mL and 288 ng/mL and 57 ng/mL
DCDQ concentration in urine [2, 10]: 118 ± 51.9 ng/mL
DCDQ concentration in urine [2, 11]: 79.5 ng/mL and 177 ng/mL and 97.3 ng/mL
DCDQ concentration in urine [2, 12]: 114 ± 81.5 ng/mL
DCDQ concentration in urine [2, 13]: 23.1 ng/mL and 181 ng/mL and 137 ng/mL
DCDQ concentration in urine [2, 14]: 81.4 ± 82.9 ng/mL
DCDQ concentration in urine [2, 15]: 9.43 ng/mL and 62.8 ng/mL and 172 ng/mL
DCDQ concentration in urine [2, 16]: 62.5 ± 36.8 ng/mL
DCDQ concentration in urine [2, 17]: 21.7 ng/mL and 93.4 ng/mL and 72.3 ng/mL
DCDQ concentration in urine [2, 18]: 128 ± 148 ng/mL
DCDQ concentration in urine [2, 19]: 22.9 ng/mL and 298 ng/mL and 64.1 ng/mL
DCDQ concentration in urine [2, 20]: 19.8 ± 31.3 ng/mL
DCDQ concentration in urine [2, 21]: 55.9 ng/mL and 1.56 ng/mL and 1.82 ng/mL
DCDQ concentration in urine [2, 22]: 155 ± 115 ng/mL
DCDQ concentration in urine [2, 23]: 259 ng/mL and 174 ng/mL and 30.6 ng/mL
DCDQ concentration in urine [2, 24]: 258 ± 125 ng/mL
DCDQ concentration in urine [2, 25]: 351 ng/mL and 116 ng/mL and 308 ng/mL
DCDQ concentration in urine [2, 26]: 914 ± 619 ng/mL
DCDQ concentration in urine [2, 27]: 1569 ng/mL and 835 ng/mL and 339 ng/mL
DCDQ concentration in urine [2, 28]: 1369 ± 658 ng/mL
DCDQ concentration in urine [2, 29]: 1683 ng/mL and 612 ng/mL and 1811 ng/mL
DCDQ concentration in urine [2, 30]: 279 ± 123 ng/mL
DCDQ concentration in urine [2, 31]: 160 ng/mL and 405 ng/mL and 273 ng/mL
